# Patent US20210179585A1, “CRYSTAL FORM OF ABEMACICLIB MESYLATE, PREPARATION METHOD THEREFOR AND PHARMACEUTICAL COMPOSITION THEREOF” (Hangzhou SoliPharma Co., Ltd., priority 2018, published 2021)
# Experiment: Form stability experiment of crystalline forms (XRD crystalline form test after storage)
# Assay type: physicochemical
# Settings: for Test result after 30 day (XRD crystalline form): 20 mg placed at 60° C. or at room temperature under dry conditions for 30 days; for form stability on storage (form kept or changed, appearance): one month in a dry environment at room temperature and at 60° C.
# Protocol: X-ray powder diffraction (XRPD): performed on a Bruker D8 Advance diffractometer. Samples are tested at room temperature. Testing conditions: 2θ scan range 3 to 40°, step size 0.02° and speed 0.2 s/step.
# Form stability experiment of crystalline forms: Placed 20 mg abemaciclib mesylate in Preparation Example 1, abemaciclib mesylate Form 1, Form 2, Form 5, Form 6, and Form 8 of the present invention at 60° C. or at room temperature under dry conditions for 30 days, then carried out XRD crystalline form test.
SMILES,Test result after 30 day (XRD crystalline form) (methanesulfonate),"form stability on storage (form kept or changed, appearance) (methanesulfonate)",other results
"CCN1CCN(Cc2ccc(Nc3ncc(F)c(-c4cc(F)c5nc(C)n(C(C)C)c5c4)n3)nc2)CC1.CS(=O)(=O)O [Abemaciclib mesylate Form 1, N-(5-((4-ethylpiperazin-1-yl)methyl)pyridin-2-yl)-5-fluoro-4-(4-fluoro-1-isopropyl-2-methyl-1H-benzo[d]imidazol-6-yl)pyrimidin-2-amine methanesulfonate]",Form 1,kept its form unchanged,"Test result after 30 day (XRD crystalline form) (listed as Form 1, methanesulfonate): still kept their original crystalline forms"
"CCN1CCN(Cc2ccc(Nc3ncc(F)c(-c4cc(F)c5nc(C)n(C(C)C)c5c4)n3)nc2)CC1.CS(=O)(=O)O [Abemaciclib mesylate Form 2, N-(5-((4-ethylpiperazin-1-yl)methyl)pyridin-2-yl)-5-fluoro-4-(4-fluoro-1-isopropyl-2-methyl-1H-benzo[d]imidazol-6-yl)pyrimidin-2-amine methanesulfonate]",Form 2,kept its form unchanged,"Test result after 30 day (XRD crystalline form) (listed as Form 2, methanesulfonate): still kept their original crystalline forms"
"CCN1CCN(Cc2ccc(Nc3ncc(F)c(-c4cc(F)c5nc(C)n(C(C)C)c5c4)n3)nc2)CC1.CS(=O)(=O)O [Abemaciclib mesylate Form 5, N-(5-((4-ethylpiperazin-1-yl)methyl)pyridin-2-yl)-5-fluoro-4-(4-fluoro-1-isopropyl-2-methyl-1H-benzo[d]imidazol-6-yl)pyrimidin-2-amine methanesulfonate]",Form 5,kept its form unchanged,"Test result after 30 day (XRD crystalline form) (listed as Form 5, methanesulfonate): still kept their original crystalline forms"
"CCN1CCN(Cc2ccc(Nc3ncc(F)c(-c4cc(F)c5nc(C)n(C(C)C)c5c4)n3)nc2)CC1.CS(=O)(=O)O [Abemaciclib mesylate Form 6, N-(5-((4-ethylpiperazin-1-yl)methyl)pyridin-2-yl)-5-fluoro-4-(4-fluoro-1-isopropyl-2-methyl-1H-benzo[d]imidazol-6-yl)pyrimidin-2-amine methanesulfonate]",Form 6,kept its form unchanged,"Test result after 30 day (XRD crystalline form) (listed as Form 6, methanesulfonate): still kept their original crystalline forms"
"CCN1CCN(Cc2ccc(Nc3ncc(F)c(-c4cc(F)c5nc(C)n(C(C)C)c5c4)n3)nc2)CC1.CS(=O)(=O)O [Abemaciclib mesylate Form 8, N-(5-((4-ethylpiperazin-1-yl)methyl)pyridin-2-yl)-5-fluoro-4-(4-fluoro-1-isopropyl-2-methyl-1H-benzo[d]imidazol-6-yl)pyrimidin-2-amine methanesulfonate]",Form 8,kept its form unchanged,"Test result after 30 day (XRD crystalline form) (listed as Form 8, methanesulfonate): still kept their original crystalline forms"
"CCN1CCN(Cc2ccc(Nc3ncc(F)c(-c4cc(F)c5nc(C)n(C(C)C)c5c4)n3)nc2)CC1.CS(=O)(=O)O [Abemaciclib mesylate, N-(5-((4-ethylpiperazin-1-yl)methyl)pyridin-2-yl)-5-fluoro-4-(4-fluoro-1-isopropyl-2-methyl-1H-benzo[d]imidazol-6-yl)pyrimidin-2-amine methanesulfonate]",Amorphous,–,"form stability on storage (form kept or changed, appearance) (listed as amorphos abemaciclib mesylate, methanesulfonate): weak crystalline state and discoloration appeared; form stability on storage (form kept or changed, appearance) (listed as amorphous abemaciclib mesylate, methanesulfonate): weak crystalline state and discoloration appeared"
